Measurements from US8367729B2, “Composition with preventive or improvement effect on symptoms or diseases associated with stress-induced behavior disorders” (Suntory Holdings Limited, priority 2004, dated 2013).

What was measured:
[1] = system: mice subjected to restraint stress; experiment: Behavioral observation test (Irwin neurobehavioral test method) after 6-hour restraint stress; format: in vivo, male ICR mice; details: conclusion of Example 3
From the text: The experimental groups consisted of 51 two- to three-month-old male ICR mice, divided into a control diet group (27 mice) and a TG[…]-containing diet group (24 mice), with the control diet or TG[…]-containing diet shown in Table 1 being given to each group. Each group was further divided into non-restrained groups (non-restrained control diet group (9), non-restrained arachidonic acid (ARA) diet group (12)) and restrained groups (restrained control diet group (18), restrained ARA diet group (12)). The restraining was accomplished using a wire mesh restraining tube, once for a 6 hour period three weeks after the start of feeding. The control diet or TG[…]-containing diet shown in Table 1 continued to be fed to each group for the remaining experiment period. The TG[…] used for the TG[…]-containing diet was the product obtained in Example 1. Since the daily ingestion was approximately 5 g per mouse, the daily intake of TG[…] was 25 mg per mouse. Also, since the total fatty acids bonded to the arachidonic acid-containing oils or fats (triglycerides) prepared in Example 1 included 40 wt % arachidonic acid, the daily intake of arachidonic acid was 10 mg per mouse. The 6-hour restraint with a wire mesh restraining tube was immediately followed by a behavioral observation test. […]

[2] = system: IL-1β induced stress anxiety behavior models; details: administration of free arachidonic acid; J Lipid Res. 44, 1984, 2003; cited from earlier work

CCCCC/C=C\C/C=C\C/C=C\C/C=C\CCCC(=O)O [arachidonic acid]
overall effect on behavioral patterns altered as a result of stress [1]: exhibits an improving effect against behavioral disorders | effect on IL-1β induced stress anxiety behavior [2]: not effective
